Reference: paper PMC10763561, “Red-light modulated ortho-chloro azobenzene photoswitch for peptide stapling via aromatic substitution” (RSC Chemical Biology, 2023)
Like-named read-outs stand apart in the source and are kept apart here. Each block holds one compound with its values, some of them ahead of it. Starred links: 1 amine or outer side, 2 acyl side, 3 side chain; linkers in the order of their positions; H or OH if unused. Positions of bridges follow the written chain, without caps; N, C: chain ends. Residues, ends and D or L forms follow the SMILES beside them. X1 = Clc1cc([*:1])cc(Cl)c1N=Nc1c(Cl)cc([*:2])cc1Cl

Key:
[1] = target: T1, p53-interacting domain of human MDM2 (MDM2 6-125) (Homo sapiens, UniProt Q00987); assay: MDM2 direct fluorescence polarisation binding assay; details: direct FP, 15 nM tracer, MDM2 titrated from 9.75 uM, 18-point, PBS 0.05% Tween-20 3% DMSO, 1:1 binding model
T1 construct: human MDM2 (MDM26–125)
T1 sequence (Q00987 6-125 limits assumed): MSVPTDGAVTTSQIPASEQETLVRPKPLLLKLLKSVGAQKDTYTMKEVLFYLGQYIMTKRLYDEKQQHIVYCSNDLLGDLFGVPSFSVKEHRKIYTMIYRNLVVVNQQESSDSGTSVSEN
Method: To assess the binding affinity of the precursor peptide P1 and the photoswitchable stapled peptide SP1 for MDM2, a competitive fluorescence polarisation (FP) assay was carried out using the p53-interacting domain of human MDM2 (MDM26–125). […] The inhibitory constants (Ki) for all peptides were subsequently determined. […] This can be attributed the loss in α-helicity observed for P1, in comparison to that of PMI,[34] measured by CD analysis. To induce in situ isomerisation, SP1 was irradiated with red or purple light in FP buffer prior to commencing the experiment. […] The Ki values for each isomer were determined from their corresponding inflection points in the fitted sigmoidal curve. […]
The half-life of the metastable cis SP1 form in FP assay buffer was determined by analytical HPLC analysis (Figure S3). […]
P1 and SP1 (10 μL, 10 mM stock in DMSO) were incubated with PBS (1x, 500 μL), human serum (50 μL) and caffeine (10 μL of a 11.25 mg/mL solution in MQ water) at 37 °C for 5 days. […] The samples were spun at 13400 g for 10 minutes and the supernatant analysed by HPLC analysis, with a 5-95% B gradient (A: 0.05% (v/v) TFA in H2O, B: 0.05% (v/v) TFA in MeCN) over 18 minutes at 220 nm.
Caffeine was used as an internal standard to enable quantification of degradation over time. […]
7 Fluorescence Polarisation (FP) Assay […]
7.1 MDM2 Fluorescence Polarisation Binding Assay […]

[2] = Serum stability study monitored by HPLC; format: in vitro ADME, human; details: 37 °C, HPLC 220 nm
Method: The stability of SP1 in human serum was investigated and compared to the stability of its linear precursor P1 and the parent PMI (Fig. 6). The stability of the peptides at 37 °C in human serum was monitored throughout 5 days by HPLC.
Fig. 6 Stability of the precursor peptide P1, the parent PMI and SP1 in human serum at 37 °C, over 5 days, monitored by HPLC at 220 nm. […]
6.2 Serum Stability Studies
P1 and SP1 (10 μL, 10 mM stock in DMSO) were incubated with PBS (1x, 500 μL), human serum (50 μL) and caffeine (10 μL of a 11.25 mg/mL solution in MQ water) at 37 °C for 5 days. At specific intervals, aliquots (25 μL) of the reaction mixture were taken, flash frozen in liquid nitrogen and stored at -20 °C prior to analysis on the same day. Upon unfreezing, the samples were quenched with 25 μL of 96% ethanol and 25 μL of DMSO. The samples were spun at 13400 g for 10 minutes and the supernatant analysed by HPLC analysis, with a 5-95% B gradient (A: 0.05% (v/v) TFA in H2O, B: 0.05% (v/v) TFA in MeCN) over 18 minutes at 220 nm.
Caffeine was used as an internal standard to enable quantification of degradation over time. The experiment was performed in duplicates (Table S2-4). […]

[3] = human, human serum diluted in PBS, replicate 1, human serum 50 uL in PBS 500 uL, caffeine internal standard, read-out: Normalised Linker % (peptide remaining)
[4] = human, human serum diluted in PBS, replicate 2, human serum 50 uL in PBS 500 uL, caffeine internal standard, read-out: Normalised Linker % (peptide remaining)
[5] = human, human serum diluted in PBS, 24 h, replicate 2, human serum 50 uL in PBS 500 uL, caffeine internal standard, read-out: Normalised Linker % (peptide remaining)

Kd [1]: 7.6 nM
Compound: CSCC[C@H](NC(=O)[C@H](Cc1ccccc1)NC(=O)[C@H](CCCNC(=N)N)NC(=O)c1ccc2c(c1)C(=O)OC21c2ccc(N(C)C)cc2Oc2cc(N(C)C)ccc21)C(=O)N[C@@H](CC(=O)O)C(=O)N[C@@H](Cc1ccc(O)cc1)C(=O)N[C@@H](Cc1c[nH]c2ccccc12)C(=O)N[C@@H](CCC(=O)O)C(=O)NCC(=O)N[C@@H](CC(C)C)C(N)=O [FP tracer peptide, TAMRA-RFMDYWEGL-NH2]

Normalised Linker % (peptide remaining) ([2]; 1 h, replicate 2, without the addition of TCEP, human serum 50 uL in PBS 500 uL, caffeine internal standard): 0.000% | remaining at 0.5 h, 175 µM ([2]; human serum diluted in PBS, 0.5 h, replicate 1, without the addition of TCEP, human serum 50 uL in PBS 500 uL, caffeine internal standard, read-out: Normalised Linker % (peptide remaining)): 12.8% | remaining at 1 h, 175 µM ([2]; human serum diluted in PBS, 1 h, replicate 1, without the addition of TCEP, human serum 50 uL in PBS 500 uL, caffeine internal standard, read-out: Normalised Linker % (peptide remaining)): 0%
Compound: CC(=O)N[C@H](C(=O)N[C@@H](CO)C(=O)N[C@@H](Cc1ccccc1)C(=O)N[C@@H](C)C(=O)N[C@@H](CS)C(=O)N[C@@H](Cc1ccc(O)cc1)C(=O)N[C@@H](Cc1c[nH]c2ccccc12)C(=O)N[C@@H](CC(N)=O)C(=O)NCC(=O)N[C@@H](CC(C)C)C(=O)N[C@@H](CO)C(=O)N[C@@H](CS)C(N)=O)[C@@H](C)O [Peptide P1] (Ac-TSFACYWNGLSC-NH2)

stability in human serum compared with P1 and PMI ([2]; human serum, 5 days): markedly improved stability | remaining at 2 h, 175 µM [2, 3]: 88.6% | remaining at 2 h, 175 µM [2, 4]: 89% | remaining at 24 h, 175 µM ([2]; human, human serum diluted in PBS, 24 h, replicate 1, human serum 50 uL in PBS 500 uL, caffeine internal standard, read-out: Normalised Linker % (peptide remaining)): 82.9% | remaining at 24 h, 175 µM [2, 5]: 72.4% | remaining at 72 h, 175 µM [2, 3]: 79.2% | remaining at 72 h, 175 µM [2, 4]: 53.6% | remaining at 120 h, 175 µM [2, 3]: 82.4% | remaining at 120 h, 175 µM [2, 4]: 48%
Compound: CC(=O)N[C@H](C(=O)N[C@@H](CO)C(=O)N[C@@H](Cc1ccccc1)C(=O)N[C@@H](C)C(=O)N[C@H]1CSc2cc(Cl)c(c(Cl)c2)N=Nc2c(Cl)cc(cc2Cl)SC[C@@H](C(N)=O)NC(=O)[C@H](CO)NC(=O)[C@H](CC(C)C)NC(=O)CNC(=O)[C@H](CC(N)=O)NC(=O)[C@H](Cc2c[nH]c3ccccc23)NC(=O)[C@H](Cc2ccc(O)cc2)NC1=O)[C@@H](C)O [SP1] (Ac-TSFACYWNGLSC-NH2; linker 5-12 via X1)

Normalised Linker % (peptide remaining) ([2]; 24 h, replicate 1, human serum 50 uL in PBS 500 uL, caffeine internal standard): 0.000% | remaining at 1 h, 175 µM ([2]; human, human serum diluted in PBS, 1 h, replicate 1, human serum 50 uL in PBS 500 uL, caffeine internal standard, read-out: Normalised Linker % (peptide remaining)): 87.2% | remaining at 1 h, 175 µM ([2]; human, human serum diluted in PBS, 1 h, replicate 2, human serum 50 uL in PBS 500 uL, caffeine internal standard, read-out: Normalised Linker % (peptide remaining)): 97.2% | remaining at 3 h, 175 µM [2, 3]: 72.8% | remaining at 3 h, 175 µM [2, 4]: 76.2% | remaining at 6 h, 175 µM [2, 3]: 47.4% | remaining at 6 h, 175 µM [2, 4]: 32.7% | remaining at 9 h, 175 µM [2, 3]: 23.2% | remaining at 9 h, 175 µM [2, 4]: 11.3% | remaining at 24 h, 175 µM [2, 5]: 0%
Compound: Ac-TSFAEYWNNLSP-NH2 [PMI, reference compound]
